The values that follow come from patent publication US7319109B2, “Farnesoid X receptor agonists” (Smith Kline Beecham Corporation, priority 2002, dated 2008).

The structures appear in SMILES notation.

For this assay, the target named is T1, Human FXRα Ligand Binding Domain (FXRα LBD) (Homo sapiens, UniProt Q96RI1).
T1 construct: polyhistidine (N); made in house; host or cells: E. coli BL21 (DE3), pRSET-A vector
T1 sequence (Q96RI1 222-472 isoform Q96RI1-2): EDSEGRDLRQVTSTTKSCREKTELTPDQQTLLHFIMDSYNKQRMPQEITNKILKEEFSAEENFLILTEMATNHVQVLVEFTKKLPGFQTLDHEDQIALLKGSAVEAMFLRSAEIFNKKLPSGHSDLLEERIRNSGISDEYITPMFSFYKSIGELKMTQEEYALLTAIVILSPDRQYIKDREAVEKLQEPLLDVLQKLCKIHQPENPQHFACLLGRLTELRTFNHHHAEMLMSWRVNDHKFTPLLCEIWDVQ
The assay can be described thus: FXR Affinity Binding Assay: ligand mediated cofactor peptide (SRC-1 LCD2, 676-700) interaction, time resolved fluorescence. As to conditions: FXRα LBD-APC / europium labeled SRC-1 peptide, TRF signal, at least 2 hours at room temperature; read-out: Activity (pEC50) (converted).
On to `COC(=O)c1cccc(N(C)Cc2ccc(OCc3c(-c4c(Cl)cccc4Cl)noc3C(C)C)cc2Cl)c1` [Example 92, Methyl 3-[(2-chloro-4-{[3-(2,6-dichlorophenyl)-5-isopropylisoxazol-4-yl]methoxy}benzyl)(methyl)amino]benzoate], for which the EC50 is 0.102 to 1 µM.

`CC(C)c1onc(-c2c(Cl)cccc2Cl)c1COc1ccc(CN(C)c2cccc(C(=O)O)c2)c(Cl)c1` [Example 93, 3-[(2-Chloro-4-{[3-(2,6-dichlorophenyl)-5-isopropylisoxazol-4-yl]methoxy}benzyl)(methyl)amino]benzoic acid]: the EC50 is 0.102 to 1 µM.

Regarding `CC(C)c1onc(-c2c(Cl)cccc2Cl)c1COc1ccc(CNc2cccc(C(=O)O)c2)c(Cl)c1` [Example 94, 3-[(2-Chloro-4-{[3-(2,6-dichlorophenyl)-5-isopropylisoxazol-4-yl]methoxy}benzyl)amino]benzoic acid], the EC50 is 0.102 to 1 µM.

`CCOC(=O)c1cccc(NCc2ccc(OCc3c(-c4ccccc4OC(F)(F)F)noc3C(C)C)cc2Cl)c1` [Example 95, Ethyl 3-{[2-chloro-4-({5-isopropyl-3-[2-(trifluoromethoxy)phenyl]-4-isoxazolyl}methoxy)benzyl]amino}benzoate]: the EC50 was 0.102 to 1 µM.

For `CC(C)c1onc(-c2ccccc2OC(F)(F)F)c1COc1ccc(CNc2cccc(C(=O)O)c2)c(Cl)c1` [Example 96, 3-{[2-Chloro-4-({5-isopropyl-3-[2-(trifluoromethoxy)phenyl]-4-isoxazolyl}methoxy)benzyl]amino}benzoic acid], the EC50 is 0.102 to 1 µM.

For the compound `CC(C)c1onc(-c2ccccc2OC(F)(F)F)c1COc1ccc(CN(C)c2cccc(C(=O)O)c2)c(Cl)c1` [Example 97, 3-[[2-Chloro-4-({5-isopropyl-3-[2-(trifluoromethoxy)phenyl]-4-isoxazolyl}methoxy)benzyl](methyl)amino]benzoic acid], the EC50 is 0.102 to 1 µM.

In the case of `COC(=O)c1ccc(COc2ccc(OCc3c(-c4c(Cl)cccc4Cl)noc3C(C)C)cc2C)cc1` [Example 98, Methyl 4-[(4-{[3-(2,6-dichlorophenyl)-5-isopropylisoxazol-4-yl]methoxy}-2-methylphenoxy)methyl]benzoate], the EC50 is 1.02 to 10 µM.

`COC(=O)c1cccc(COc2ccc(OCc3c(-c4c(Cl)cccc4Cl)noc3C(C)C)cc2Cl)c1` [Example 99, Methyl 3-[(2-chloro-4-{[3-(2,6-dichlorophenyl)-5-isopropylisoxazol-4-yl]methoxy}-phenoxy)methyl]benzoate]: the EC50 was 1.02 to 10 µM.

For the compound `COC(=O)c1cccc(COc2ccc(OCc3c(-c4c(Cl)cccc4Cl)noc3C(C)C)cc2C)c1` [Example 100, Methyl 3-[(4-{[3-(2,6-dichlorophenyl)-5-isopropylisoxazol-4-yl]methoxy}-2-methyl-phenoxy)methyl]benzoate], the EC50 is 0.102 to 1 µM.

Consider `CC(C)c1onc(-c2c(Cl)cccc2Cl)c1COc1ccc(OCc2cccc(C(=O)O)c2)c(Cl)c1` [Example 101, 3-[(2-Chloro-4-{[3-(2,6-dichlorophenyl)-5-isopropylisoxazol-4-yl]methoxy}phenoxy)-methyl]benzoic acid], for which the EC50 is 0.102 to 1 µM.

In the case of `Cc1cc(OCc2c(-c3c(Cl)cccc3Cl)noc2C(C)C)ccc1OCc1cccc(C(=O)O)c1` [Example 102, 3-[(4-{[3-(2,6-Dichlorophenyl)-5-isopropylisoxazol-4-yl]methoxy}-2-methylphenoxy)-methyl]benzoic acid], the EC50 is 0.102 to 1 µM.
